The values below are quoted from earlier work in US20050182030A1, “Liquid injectable formulation of disodium pamidronate” (American Pharmaceutical Partners, Inc., priority 2001, published 2005).

For data set [1] the following is noted: in vivo.
For data set [2] the following is noted: liquid formulation.
The conditions of data set [3]: approximately normal ambient conditions.

On to `NCCC(O)(P(=O)([O-])O)P(=O)([O-])O.[Na+].[Na+]` [pamidronate, 3-amino-1-hydroxypropane-1,1-diphosphonate disodium], for which, in data set [1], the “Absorption from the gastrointestinal system” value was “poor absorption”. Besides, in data set [2], the “Stability during long-term storage” value is given as “unstable/reactive”.
`NCCC(O)(P(=O)([O-])O)P(=O)([O-])O.O.O.O.O.O.[Na+].[Na+]` [pentahydrate, pamidronate disodium pentahydrate]: the Stability to storage result in data set [3] is given as “stable to storage”.
As for `NCCC(O)(P(=O)(O)O)P(=O)(O)O` [pamidronic acid], the Solubility in water result was “not soluble in water”.
